Results: patent US20170095512A1, “METHODS OF INDUCING MYELINATION AND MATURATION OF OLIGODENDROCYTES” (KADIMASTEM LTD., priority 2014, published 2017)
“Also recorded” adds a separate entry of the source.

What was measured:
[1] = tested on: hPSC derived oligodendrocytes co-cultured with rodent dorsal root ganglia neurons (MBP+ cells); experiment: Co-culture myelination assay (human oligodendrocytes with DRG neurons), MBP staining; assay type: cell-based
Description: ArrayScan VTI HCS reader system (Cellomis, Thermo-scientific) was used for scanning at least 20 fields for each tested well under 10× objective in both assays (differentiation and myelination). Cellomics Neural profiling bio-application was used for processing and analyzing the images. For differentiation assay, the following parameters were tested: number and percentage of O4+ cells, number of processes, processes length and number of branching points. For myelination assay, the same morphological parameters were tested and in addition: areas of myelinated axons in pixels (MBP&NF overlap area) and Number of myelinated regions (MBP&NF overlap count) were also analyzed. Modifications in the Neuro-profiling bio-application were conducted for this specific purpose. T-test analysis was used to compare between treatments. The 4-parameter Hill-Slope curve fittings were generated by GraphPad Prism software using least squares fitting method and EC50 values were calculated.
DRG dissociated cells from mouse embryonic day 13 (E13) or rat embryonic day (E15) were seeded on matrigel and PDL-coated 96 well plates (20,000 cells/well). In order to allow long culture and co-culture of neuron axons in 96 well plates without de-attachment, a method where the periphery of each well was scratched leaving sticky edges (and smooth surface) was developed. This scratch methodology enables long lasting culture of neuron axons on 96 well format. Once DRG neurons were seeded they were fed with Neurobasal medium (Gibco) supplemented with B27 (Gibco) and 50 ng/ml NGF (Alomone labs) (NB medium) for 2-3 weeks prior hES-OPC addition. […]
For testing maturation and myelination capacity of the hPSC derived oligodendrocytes, a co-culture system between rodent dorsal root ganglia (DRGs) and hPSCs derived oligodendrocytes was used. The number of MBP+ cells (MBP, a marker of oligodendrocytes' myelin) and Myelin formation (measured by co-localization area between MBP and neurofilament positive neuronal axons) was quantified.

[2] = tested on: human oligodendrocytes precursor cells (hOPC); experiment: Microarray gene expression analysis of LDN treated hOPC; assay type: cell-based; conditions: 125 nM, 35 days
Description: LDN (125 nM) was supplemented to human oligodendrocytes precursor cells (hOPC) for 35 days. Microarray analysis was performed on duplicate of LDN treated and Non-treated (NT) hOPC.

## c1ccc2c(-c3cnn4cc(-c5ccc(N6CCNCC6)cc5)cnc34)ccnc2c1 [LDN-193189]
[1]
  MBP+ cells number / differentiation into MBP+ cells (summary statement): increased also the number of MBP+ cells
[1]; 14 days co-culture, 125 nM LDN-193189 added to MYL media with 50 ng/ml Noggin, vs Noggin alone
  number of MBP+ cells (mature oligodendrocytes): increased the number of MBP+ cells; also recorded: significant increase
[1]; 14 days co-culture, Noggin+LDN-193189 vs Noggin alone
  total cell count: no difference was observed
[2]
  LDN expression value: ADAMTS5, cluster 16924620: 4.59
  LDN expression value: AN04, cluster 16755712: 3.1
  LDN expression value: ARHGAP28, cluster 16850724: 3.09
  LDN expression value: ASPN, cluster 17095887: 9.23
  LDN expression value: ATP8B1, cluster 16855510: 3.98
  LDN expression value: BCAS1, cluster 16920475: 6.52
  LDN expression value: BMP8B, cluster 16685729: 4.53
  LDN expression value: C1QTNF9B-AS1, cluster 16773183: 3.69
  LDN expression value: CACNG5, cluster 16837160: 5.71
  LDN expression value: CATSPER2P1, cluster 16808340: 5.12
  LDN expression value: CGB2, cluster 16863963: 4.05
  LDN expression value: CKMT1A, cluster 16800268: 4.08
  LDN expression value: CLDN25, cluster 16731401: 4.26
  LDN expression value: CLVS2, cluster 17012223: 4.53
  LDN expression value: COL12A1, cluster 17020846: 8.23
  LDN expression value: CYTL1, cluster 16973934: 5.81
  LDN expression value: DLX2, cluster 16905108: 6.25
  LDN expression value: DLX6-AS1, cluster 17060039: 5.13
  LDN expression value: EFTUD1P1, cluster 16804141: 3.87
  LDN expression value: FLJ16124, cluster 16880774: 3.13
  LDN expression value: GABRQ, cluster 17107855: 6.76
  LDN expression value: GAD2, cluster 16703382: 3.71
  LDN expression value: GFRA1, cluster 16718670: 7.52
  LDN expression value: GJB2, cluster 16777185: 4.88
  LDN expression value: GPR126, cluster 17013126: 5.42
  LDN expression value: GRIK1, cluster 16924761: 7.51
  LDN expression value: GSX2, cluster 16966801: 4.62
  LDN expression value: HCG24, cluster 17028423: 2.38
  LDN expression value: ID1, cluster 16912362: 4.47
  LDN expression value: ID3, cluster 16683377: 5.5
  LDN expression value: IGLV3-9, cluster 16927827: 5.34
  LDN expression value: IL17RB, cluster 16941871: 4.55
  LDN expression value: INSM1, cluster 16911917: 6.13
  LDN expression value: KIAA1199, cluster 16803754: 4.07
  LDN expression value: LOC284632, cluster 16660753: 3.33
  LDN expression value: LOC100286922, cluster 16909695: 3.3
  LDN expression value: LPAR3, cluster 16688992: 5.8
  LDN expression value: LRRC7, cluster 16665976: 3.48
  LDN expression value: LRRTM1, cluster 16899533: 3.97
  LDN expression value: MIR1226, cluster 16940440: 4.98
  LDN expression value: MIR1321, cluster 17105179: 3.47
  LDN expression value: MIR3160-1, cluster 16724356: 4.18
  LDN expression value: MSLNL, cluster 16822561: 5.67
  LDN expression value: NUDT9P1, cluster 16716499: 3.56
  LDN expression value: OR2V1, cluster 17004061: 3.13
  LDN expression value: OTTHUMG00000156244, cluster 17056553: 4.16
  LDN expression value: OTTHUMG00000176466, cluster 16826102: 5.02
  LDN expression value: PAPPA2, cluster 16674151: 4.24
  LDN expression value: PDE5A, cluster 16979339: 4.13
  LDN expression value: PPP1R17, cluster 17044956: 5.13
  LDN expression value: RNA5SP482, cluster 16912470: 2.92
  LDN expression value: SCARNA1, cluster 16661495: 2.28
  LDN expression value: SCGN, cluster 17005473: 6.7
  LDN expression value: SERPINA3, cluster 16787902: 5.07
  LDN expression value: SLC1A2, cluster 16737325: 6.08
  LDN expression value: SLC1A4, cluster 16880712: 8.96
  LDN expression value: SLC1A5, cluster 16873632: 6.29
  LDN expression value: SNORA70B, cluster 16898108: 2.38
  LDN expression value: SNORD1B, cluster 16838101: 3.01
  LDN expression value: SNORD37, cluster 16867229: 3.63
  LDN expression value: SNORD88B, cluster 16874641: 5.05
  LDN expression value: SOX10, cluster 16934881: 6.63
  LDN expression value: SP8, cluster 17055689: 4.65
  LDN expression value: ST18, cluster 17077073: 2.85
  LDN expression value: TEX35, cluster 16674240: 3.05
  LDN expression value: TNFAIP6, cluster 16886491: 5.47
  LDN expression value: TNR, cluster 16696624: 8.09
  LDN expression value: TRAJ46, cluster 16782032: 3.99
  LDN expression value: TRIM65, cluster 16848961: 5.41
  LDN expression value: TTK, cluster 17010552: 5.68
  LDN expression value: UGT8, cluster 16970001: 8.99
  LDN expression value: WIF1, cluster 16767081: 5.73
  LDN expression value: ZIC2, cluster 16776103: 4.76
  LDN expression value: cluster 16662690: 3.02
  LDN expression value: cluster 16689704: 2.34
  LDN expression value: cluster 16697040: 3.18
  LDN expression value: cluster 16697217: 3.02
  LDN expression value: cluster 16703561: 5.3
  LDN expression value: cluster 16707466: 3.92
  LDN expression value: cluster 16740950: 5.53
  LDN expression value: cluster 16742286: 4.35
  LDN expression value: cluster 16758848: 4.29
  LDN expression value: cluster 16766940: 6.76
  LDN expression value: cluster 16781352: 4.74
  LDN expression value: cluster 16797929: 5.86
  LDN expression value: cluster 16834632: 3.21
  LDN expression value: cluster 16846798: 5.15
  LDN expression value: cluster 16906256: 3.32
  LDN expression value: cluster 16926511: 5.66
  LDN expression value: cluster 16928859: 2.2
  LDN expression value: cluster 16985206: 3.41
  LDN expression value: cluster 16997369: 4.3
  LDN expression value: cluster 17012233: 3.53
  LDN expression value: cluster 17042403: 7.47
  LDN expression value: cluster 17056789: 6.64
  LDN expression value: cluster 17063571: 2.81
  LDN expression value: cluster 17112263: 2.9
  LDN expression value: cluster 17117590: 5.68
  LDN expression value: cluster 17118266: 2.43
  LDN expression value: cluster 17118303: 3.61
  LDN expression value: cluster 17124590: 2.62
